Literature values in patent US11958977B2, “Fluorescently labeled polysaccharide, preparation method therefor, and use thereof” (SUZHOU BAIYUAN GENT CO., LTD., priority 2018, dated 2024).
Structures can show the parent of a compound that is named as a salt.

Settings: Solvent: 0.1M H2SO4

Quantum yield of the reference compound: 0.56
Compound: C=C[C@H]1C[N@@]2CC[C@H]1C[C@H]2[C@H](O)c1ccnc2ccc(OC)cc12 [quinine sulfate]
